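Following 48 hours of exposure in 96-well plates, responses at five concentrations were used to interpolate endpoints linearly. GI50: concentration for 50% inhibition of growth. TGI: total growth inhibition.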
Columns and labels:
Assay in all cases: NCI-60 cell line screen, 48 h
[1] = tested on: MALME-3M melanoma
[2] = tested on: KM12 colon
[3] = tested on: SR leukemia
[4] = tested on: IGROV1 ovarian
[5] = tested on: SK-MEL-28 melanoma
[6] = tested on: 786-0 renal
[7] = tested on: NCI-H522 lung
[8] = tested on: MDA-MB-435
[9] = tested on: HL-60(TB) leukemia
[10] = tested on: U251 CNS
[11] = tested on: ACHN renal
[12] = tested on: M14 melanoma
[13] = tested on: SK-MEL-5 melanoma
[14] = tested on: SF-295 CNS
[15] = tested on: OVCAR-5 ovarian
[16] = tested on: BT-549 breast
[17] = tested on: MOLT-4 leukemia
[18] = tested on: HCT-15 colon
[19] = tested on: OVCAR-4 ovarian
[20] = tested on: SK-OV-3 ovarian
[21] = tested on: UO-31 renal
[22] = tested on: A498 renal
[23] = tested on: SF-539 CNS
[24] = tested on: PC-3 prostate
[25] = tested on: UACC-257 melanoma
[26] = tested on: HOP-92 NSCLC
[27] = tested on: T-47D breast
[28] = tested on: K-562 leukemia
[29] = tested on: DU-145 prostate
[30] = tested on: CCRF-CEM leukemia
[31] = tested on: NCI-H226 lung
[32] = tested on: OVCAR-3 ovarian
[33] = tested on: HS 578T breast
[34] = tested on: NCI-H23 lung
[35] = tested on: RXF 393 renal
[36] = tested on: NCI-H460 lung
[37] = tested on: HT29 colon
[38] = tested on: SK-MEL-2 melanoma
[39] = tested on: TK-10 renal
[40] = tested on: MDA-MB-231 breast
[41] = tested on: NCI/ADR-RES ovarian
[42] = tested on: HCT-116 colon
[43] = tested on: SNB-75 CNS
[44] = tested on: RPMI-8226 leukemia
[45] = tested on: CAKI-1 renal
[46] = tested on: UACC-62 melanoma
[47] = tested on: SF-268 CNS
[48] = tested on: LOX IMVI melanoma
[49] = tested on: A549 NSCLC
[50] = tested on: HCC-2998 colon
[51] = tested on: EKVX NSCLC
[52] = tested on: SN12C renal
[53] = tested on: OVCAR-8 ovarian
[54] = tested on: SNB-19 CNS
[55] = tested on: HOP-62 NSCLC
[56] = tested on: COLO 205 colon
[57] = tested on: SW-620 colon

Cc1ccc2c(n1)C(=O)C(Cl)=C(Nc1cccc(C(C)C)c1)C2=O
GI50 [1]: 1.65 µM | TGI [1]: 3.18 µM | GI50 [2]: 4.94 µM | TGI [2]: 28.6 µM | GI50 [3]: 1.63 µM | TGI [3]: > 100 µM | GI50 [4]: 1.56 µM | TGI [4]: 3.1 µM | GI50 [5]: 2.4 µM | TGI [5]: 5.58 µM | GI50 [6]: 2.18 µM | TGI [6]: 5.44 µM | GI50 [7]: 2.25 µM | TGI [7]: 5.6 µM | GI50 [8]: 1.71 µM | TGI [8]: 3.16 µM | GI50 [9]: 1.73 µM | TGI [9]: 6.41 µM | GI50 [10]: 2.94 µM | TGI [10]: 11.1 µM | GI50 [11]: 1.69 µM | TGI [11]: 3.12 µM | GI50 [12]: 2.94 µM | TGI [12]: 10.1 µM | GI50 [13]: 1.67 µM | TGI [13]: 3.06 µM | GI50 [14]: 3.5 µM | TGI [14]: 11.5 µM | GI50 [15]: 2.17 µM | TGI [15]: 4.55 µM | GI50 [16]: 2.45 µM | TGI [16]: 10.8 µM | GI50 [17]: 2.27 µM | TGI [17]: > 100 µM | GI50 [18]: 1.43 µM | TGI [18]: 3.36 µM | GI50 [19]: 1.35 µM | TGI [19]: 2.64 µM | GI50 [20]: 13.2 µM | TGI [20]: 26.7 µM | GI50 [21]: 1.49 µM | TGI [21]: 2.83 µM | GI50 [22]: 6.56 µM | TGI [22]: 19.9 µM | GI50 [23]: 1.71 µM | TGI [23]: 3.15 µM | GI50 [24]: 2.17 µM | TGI [24]: 16.3 µM | GI50 [25]: 1.59 µM | TGI [25]: 3.07 µM | GI50 [26]: 1.76 µM | TGI [26]: 3.58 µM | GI50 [27]: 1.61 µM | TGI [27]: 4.15 µM | GI50 [28]: 2.47 µM | TGI [28]: > 100 µM | GI50 [29]: 1.86 µM | TGI [29]: 3.82 µM | GI50 [30]: 2.36 µM | TGI [30]: 19.9 µM | GI50 [31]: 1.48 µM | TGI [31]: 3.59 µM | GI50 [32]: 0.617 µM | TGI [32]: 2.91 µM | GI50 [33]: 2.29 µM | TGI [33]: 6.16 µM | GI50 [34]: 1.58 µM | TGI [34]: 4.55 µM | GI50 [35]: 1.29 µM | TGI [35]: 2.56 µM | GI50 [36]: 3.42 µM | TGI [36]: 13.5 µM | GI50 [37]: 3.84 µM | TGI [37]: 31.4 µM | GI50 [38]: 3.72 µM | TGI [38]: 12.8 µM | GI50 [39]: 4.67 µM | TGI [39]: 13.8 µM | GI50 [40]: 1.37 µM | TGI [40]: 3.01 µM | GI50 [41]: 2.49 µM | TGI [41]: 9.13 µM | GI50 [42]: 1.52 µM | TGI [42]: 3.55 µM | GI50 [43]: 1.4 µM | TGI [43]: 3.19 µM | GI50 [44]: 1.5 µM | TGI [44]: 5.18 µM | GI50 [45]: 1.88 µM | TGI [45]: 6.22 µM | GI50 [46]: 2.05 µM | TGI [46]: 4.64 µM | GI50 [47]: 3.17 µM | TGI [47]: 34.6 µM | GI50 [48]: 0.698 µM | TGI [48]: 2.54 µM | GI50 [49]: 3.66 µM | TGI [49]: 14 µM | GI50 [50]: 3.95 µM | TGI [50]: 13.7 µM | GI50 [51]: 1.59 µM | TGI [51]: 3.24 µM | GI50 [52]: 1.76 µM | TGI [52]: 4.54 µM | GI50 [53]: 2.53 µM | TGI [53]: 8.97 µM | GI50 [54]: 3.23 µM | TGI [54]: 13.6 µM | GI50 [55]: 2.7 µM | TGI [55]: 10.8 µM | GI50 [56]: 3.33 µM | TGI [56]: 12.1 µM | GI50 [57]: 1.94 µM | TGI [57]: 4.03 µM

From PubChem BioAssay (NCI)
